# Measurements reported in US12590062B2, “PD-1/PD-L1 inhibitors” (Gilead Sciences, Inc., priority 2017, dated 2026).
# Target: T1, PD-1/PD-L1 interaction (Homo sapiens, UniProt Q9NZQ7)
# T1 construct: expressed in transfected cells; host or cells: CHO cells (aAPC-PD-L1) co-cultured with Jurkat cells overexpressing PD-1 and an NFAT-luciferase reporter
# Assay: PD-1/PD-L1 NFAT reporter co-culture assay
# Type: cell-based
# Settings: Jurkat PD-1 NFAT-luciferase cells co-cultured with aAPC-PD-L1 CHO cells, 6 hrs at 37° C.; read-out: EC50 NFAT Luciferase
# Protocol: PD-1/PD-L1 NEAT Reporter Assay:
# Compounds were tested in afunctional co-culture reporter assay in which TCR-mediated NFAT activity is inhibited by the engagement of PD-1 with PD-L1. […] CHO cells expressing surface-bound anti-CD3 antibodies and PD-L1 (artificial antigen presenting cells, aAPC-PD-L1) were first seeded overnight. Jurkat cells overexpressing PD-1 and expressing a luciferase construct under NFAT control are diluted in RPMI assay medium (RPMI 1640 with 2% FBS), mixed with compounds, and immediately seeded on the monolayer of aAPC-PD-L1. The co-culture is then incubated for 6 hrs at 37° C. Luciferase activity is assessed by adding the ONE-Glo reagent and measuring luminescence with a plate reader. EC50 values are calculated from the fit of the dose-response curves to a four-parameter equation (Table 3).
# T1 sequence (Q9NZQ7 19-290): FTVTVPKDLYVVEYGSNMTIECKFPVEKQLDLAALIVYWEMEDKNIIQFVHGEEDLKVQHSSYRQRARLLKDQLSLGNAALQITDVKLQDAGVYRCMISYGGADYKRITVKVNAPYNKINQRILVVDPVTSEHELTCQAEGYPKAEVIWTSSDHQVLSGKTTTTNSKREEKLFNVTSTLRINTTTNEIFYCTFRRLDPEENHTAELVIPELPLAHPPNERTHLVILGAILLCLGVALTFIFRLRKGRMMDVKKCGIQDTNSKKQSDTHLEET
row,SMILES,EC50
1,"Cc1c(COc2nc(OCc3cc(C#N)cc(C#N)c3)c(CNCC(=O)O)cc2Cl)cccc1-c1cccc(COc2nc(OCc3cc(C#N)cc(C#N)c3)c(CNCC(=O)O)cc2Cl)c1C [Example 125, 2,2′-((((((2,2′-dimethyl-[1,1′-biphenyl]-3,3′-diyl)bis(methylene))bis(oxy))bis(5-chloro-2-((3,5-dicyanobenzyl)oxy)pyridine-6,3-diyl))bis(methylene))bis(azanediyl))diacetic acid]",158 nM
2,"Cc1c(COc2nc(OCCc3cc(C#N)ccn3)c(CNC[C@@H](O)CC(=O)O)cc2Br)cccc1-c1cccc(COc2nc(OCCc3cc(C#N)ccn3)c(CNC[C@@H](O)CC(=O)O)cc2Br)c1C [Example 128, (3S,3′S)-4,4′-((((((2,2′-dimethyl-[1,1′-biphenyl]-3,3′-diyl)bis(methylene))bis(oxy))bis(5-bromo-2-(2-(4-cyanopyridin-2-yl)ethoxy)pyridine-6,3-diyl))bis(methylene))bis(azanediyl))bis(3-hydroxybutanoic acid)]",234 nM
3,"Cc1c(COc2nc(OCc3cnn(C)c3)c(CNC[C@@H](O)CC(=O)O)cc2Cl)cccc1-c1cccc(COc2nc(OCc3cnn(C)c3)c(CNC[C@@H](O)CC(=O)O)cc2Cl)c1C [Example 136, (3S,3′S)-4,4′-((((((2,2′-dimethyl-[1,1′-biphenyl]-3,3′-diyl)bis(methylene))bis(oxy))bis(5-chloro-2-((1-methyl-1H-pyrazol-4-yl)methoxy)pyridine-6,3-diyl))bis(methylene))bis(azanediyl))bis(3-hydroxybutanoic acid)]",529 nM
4,"Cc1c(COc2nc(OCc3ccc(F)c(C#N)c3)c(CNC[C@@H](O)CC(=O)O)cc2Br)cccc1-c1cccc(COc2nc(OCc3ccc(F)c(C#N)c3)c(CNC[C@@H](O)CC(=O)O)cc2Br)c1C [Example 140, (3S,3′S)-4,4′-((((((2,2′-dimethyl-[1,1′-biphenyl]-3,3′-diyl)bis(methylene))bis(oxy))bis(5-bromo-2-((3-cyano-4-fluorobenzyl)oxy)pyridine-6,3-diyl))bis(methylene))bis(azanediyl))bis(3-hydroxybutanoic acid)]",239 nM
5,"Cc1c(COc2nc(OCCc3cc[nH]n3)c(CNC[C@@H](O)CC(=O)O)cc2Br)cccc1-c1cccc(COc2nc(OCCc3cc[nH]n3)c(CNC[C@@H](O)CC(=O)O)cc2Br)c1C [Example 142, (3S,3′S)-4,4′-((((((2,2′-dimethyl-[1,1′-biphenyl]-3,3′-diyl)bis(methylene))bis(oxy))bis(2-(2-(1H-pyrazol-3-yl)ethoxy)-5-bromopyridine-6,3-diyl))bis(methylene))bis(azanediyl))bis(3-hydroxybutanoic acid)]",235 nM
6,"Cc1c(COc2nc(OCc3cccc(C#N)n3)c(CNC[C@@H](O)CC(=O)O)cc2Br)cccc1-c1cccc(COc2nc(OCc3cccc(C#N)n3)c(CNC[C@@H](O)CC(=O)O)cc2Br)c1C [Example 152, (3S,3′S)-4,4′-((((((2,2′-dimethyl-[1,1′-biphenyl]-3,3′-diyl)bis(methylene))bis(oxy))bis(5-bromo-2-((6-cyanopyridin-2-yl)methoxy)pyridine-6,3-diyl))bis(methylene))bis(azanediyl))bis(3-hydroxybutanoic acid)]",594 nM
7,"Cc1c(COc2nc(OCc3cccc(C#N)c3)c(CNC[C@@H](O)CC(=O)O)cc2Cl)cccc1-c1cccc(COc2nc(OCc3cccc(C#N)c3)c(CNC[C@@H](O)CC(=O)O)cc2Cl)c1C [Example 153, (3S,3′S)-4,4′-((((((2,2′-dimethyl-[1,1′-biphenyl]-3,3′-diyl)bis(methylene))bis(oxy))bis(5-chloro-2-((3-cyanobenzyl)oxy)pyridine-6,3-diyl))bis(methylene))bis(azanediyl))bis(3-hydroxybutanoic acid)]",329 nM
8,"COc1nc(OCc2cccc(-c3cccc(COc4nc(OC)c(CNCC(=O)NS(C)(=O)=O)cc4Cl)c3C)c2C)c(Cl)cc1CNCC(=O)NS(C)(=O)=O [Example 168, 2,2′-((((((2,2′-Dimethyl-[1,1′-biphenyl]-3,3′-diyl)bis(methylene))bis(oxy))bis(5-chloro-2-methoxypyridine-6,3-diyl))bis(methylene))bis(azanediyl))bis(N-(methylsulfonyl)acetamide)]",308 nM
9,"COc1nc(OCc2cccc(-c3cccc(COc4nc(OC)c(CNCc5nnn[nH]5)cc4Cl)c3C)c2C)c(Cl)cc1CNCc1nnn[nH]1 [Example 169, 1,1′-((((2,2′-dimethyl-[1,1′-biphenyl]-3,3′-diyl)bis(methylene))bis(oxy))bis(5-chloro-2-methoxypyridine-6,3-diyl))bis(N-((1H-tetrazol-5-yl)methyl)methanamine)]",225 nM
10,"COc1nc(OCc2cccc(-c3cccc(COc4nc(OC)c(CNCc5nnc(C)o5)cc4Cl)c3C)c2C)c(Cl)cc1CNCc1nnc(C)o1 [Example 170, 1,1′-((((2,2′-dimethyl-[1,1′-biphenyl]-3,3′-diyl)bis(methylene))bis(oxy))bis(5-chloro-2-methoxypyridine-6,3-diyl))bis(N-((5-methyl-1,3,4-oxadiazol-2-yl)methyl)methanamine)]",≥ 50000 nM
11,"COc1nc(OCc2cccc(-c3cccc(COc4nc(OC)c(CNCc5c[nH]nn5)cc4Cl)c3C)c2C)c(Cl)cc1CNCc1c[nH]nn1 [Example 171, 1,1′-((((2,2′-dimethyl-[1,1′-biphenyl]-3,3′-diyl)bis(methylene))bis(oxy))bis(5-chloro-2-methoxypyridine-6,3-diyl))bis(N-((1H-1,2,3-triazol-4-yl)methyl)methanamine)]",7720 nM
12,"COc1nc(OCc2cccc(-c3cccc(COc4nc(OC)c(CN[C@@H]5CONC5=O)cc4Cl)c3C)c2C)c(Cl)cc1CN[C@@H]1CONC1=O [Example 173, (4R,4′R)-4,4′-((((((2,2′-dimethyl-[1,1′-biphenyl]-3,3′-diyl)bis(methylene))bis(oxy))bis(5-chloro-2-methoxypyridine-6,3-diyl))bis(methylene))bis(azanediyl))bis(isoxazolidin-3-one)]",≥ 50000 nM
13,"COc1nc(OCc2cccc(-c3cccc(COc4nc(OC)c(CNCC(=O)NS(=O)(=O)N(C)C)cc4Cl)c3C)c2C)c(Cl)cc1CNCC(=O)NS(=O)(=O)N(C)C [Example 174, 2,2′-((((((2,2′-dimethyl-[1,1′-biphenyl]-3,3′-diyl)bis(methylene))bis(oxy))bis(5-chloro-2-methoxypyridine-6,3-diyl))bis(methylene))bis(azanediyl))bis(N-(N,N-dimethylsulfamoyl)acetamide)]",≥ 50000 nM
14,"COc1nc(OCc2cccc(-c3cccc(COc4nc(OC)c(CNCC5(O)CC5)cc4Cl)c3C)c2C)c(Cl)cc1CNCC1(O)CC1 [Example 175, 1,1′-(((((((2,2′-dimethyl-[1,1′-biphenyl]-3,3′-diyl)bis(methylene))bis(oxy))bis(5-chloro-2-methoxypyridine-6,3-diyl))bis(methylene))bis(azanediyl))bis(methylene))bis(cyclopropan-1-ol)]",808 nM
15,"COc1nc(OCc2cccc(-c3cccc(COc4nc(OC)c(CNCC(O)C(F)F)cc4Cl)c3C)c2C)c(Cl)cc1CNCC(O)C(F)F (stereo not shown) [Example 176, 3,3′-((((((2,2′-dimethyl-[1,1′-biphenyl]-3,3′-diyl)bis(methylene))bis(oxy))bis(5-chloro-2-methoxypyridine-6,3-diyl))bis(methylene))bis(azanediyl))bis(1,1-difluoropropan-2-ol)]",2880 nM
16,"COc1nc(OCc2cccc(-c3cccc(COc4nc(OC)c(CN[C@H]5CCC[C@@H](C(=O)O)C5)cc4Cl)c3C)c2C)c(Cl)cc1CN[C@H]1CCC[C@@H](C(=O)O)C1 [Example 184, (1R,1′R,3S,3′S)-3,3′-((((((2,2′-dimethyl-[1,1′-biphenyl]-3,3′-diyl)bis(methylene))bis(oxy))bis(5-chloro-2-methoxypyridine-6,3-diyl))bis(methylene))bis(azanediyl))bis(cyclohexane-1-carboxylic acid)]",1390 nM
17,"COc1nc(OCc2cccc(-c3cccc(COc4nc(OC)c(CNC[C@@H](O)CC(=O)O)cc4Br)c3Cl)c2Cl)c(Br)cc1CNC[C@@H](O)CC(=O)O [Example 189, (3S,3′S)-4,4′-((((((2,2′-Dichloro-[1,1′-biphenyl]-3,3′-diyl)bis(methylene))bis(oxy))bis(5-bromo-2-methoxypyridine-6,3-diyl))bis(methylene))bis(azanediyl))bis(3-hydroxybutanoic acid)]",106 nM
18,"COc1nc(OCc2cccc(-c3cccc(COc4nc(OC)c(CNC[C@@H](O)CC(=O)O)cc4Br)c3Cl)c2Cl)ccc1CNC[C@@H](O)CC(=O)O [Example 190, (S)-4-(((6-((3′-(((3-Bromo-5-((((S)-3-carboxy-2-hydroxypropyl)amino)methyl)-6-methoxypyridin-2-yl)oxy)methyl)-2,2′-dichloro-[1,1′-biphenyl]-3-yl)methoxy)-2-methoxypyridin-3-yl)methyl)amino)-3-hydroxybutanoic acid]",516 nM
19,"N#Cc1cncc(COc2nc(OCc3cccc(-c4cccc(COc5nc(OCc6cncc(C#N)c6)c(CNC[C@@H](O)CC(=O)O)cc5Br)c4Cl)c3Cl)ccc2CNC[C@@H](O)CC(=O)O)c1 [Example 194, (S)-4-(((6-((3′-(((3-Bromo-5-((((S)-3-carboxy-2-hydroxypropyl)amino)methyl)-6-((5-cyanopyridin-3-yl)methoxy)pyridin-2-yl)oxy)methyl)-2,2′-dichloro-[1,1′-biphenyl]-3-yl)methoxy)-2-((5-cyanopyridin-3-yl)methoxy)pyridin-3-yl)methyl)amino)-3-hydroxybutanoic acid]",1260 nM
